Consider four molecules from ChEMBL document CHEMBL4627374, “Psathyrins: Antibacterial Diterpenoids from Psathyrella candolleana” (2020).

Converted amounts (≈) assume the structure as drawn.

What all share (format): functional
In assay [1] the test system is Staphylococcus aureus. Kind of assay: Antibacterial activity against Staphylococcus aureus subsp. aureus ATCC 29213 incubated for 24 hrs by photometry. To be noted: ATCC 29213, 24 h.
For assay [2], the system named is Salmonella enterica subsp. enterica. The assay can be described thus: Antibacterial activity against Salmonella enterica subsp. enterica ATCC 14028 incubated for 24 hrs by photometry. To be noted: ATCC 14028, 24 h.
Assay [3] relates to Pseudomonas aeruginosa. The assay can be described thus: Antibacterial activity against Pseudomonas aeruginosa ATCC 27853 incubated for 24 hrs by photometry. To be noted: ATCC 27853, 24 h.

The term MIC50 denotes an inhibitory concentration at the 50% level, which refers to growth in some studies and to a panel of isolates in others. With `CC(C)[C@H]1CC(=O)[C@]23[C@@H]4C=C(CO)C[C@@H](O)[C@@H]4[C@@]2(C)CC[C@]13C`, the values for the MIC50 in assay [1], in assay [2] and in assay [3] were 14.3 µg/mL (≈ 44.9 µM), 77.9 µg/mL (≈ 245 µM) and greater than 128 µg/mL, respectively.

Take `CC1(C)S[C@@H]2[C@H](NC(=O)Cc3ccccc3)C(=O)N2C1C(=O)[O-].[Na+]` (some centres undefined): the MIC50 came out at 0.81 µg/mL in assay [1] and 1.32 µg/mL in assay [2].

In the case of `C[C@H](CO)[C@H]1CC(=O)C23[C@@H]4C=C(CO)CC[C@@H]4[C@@]2(C)CC[C@]13C` (some centres undefined), the MIC50 in assay [1] was 22.7 µg/mL (≈ 71.3 µM); in assay [2] it was 102 µg/mL (≈ 319 µM); in assay [3], greater than 128 µg/mL.

In turn, `CC(C)(O/N=C(\C(=O)N[C@@H]1C(=O)N2C(C(=O)[O-])=C(C[n+]3ccccc3)CS[C@H]12)c1csc(N)n1)C(=O)O` [CEFTAZIDIME] showed an MIC50 in assay [3] of 0.08 µg/mL (≈ 0.146 µM).
